Molecular target: T1, purified sGC (bovine lung soluble guanylyl cyclase) (Bos taurus, UniProt P16068)
T1 construct: gene GUCY1B1; native enzyme purified from bovine lung; with Guanylate cyclase soluble subunit alpha-1
T1 sequence (P16068 1-619): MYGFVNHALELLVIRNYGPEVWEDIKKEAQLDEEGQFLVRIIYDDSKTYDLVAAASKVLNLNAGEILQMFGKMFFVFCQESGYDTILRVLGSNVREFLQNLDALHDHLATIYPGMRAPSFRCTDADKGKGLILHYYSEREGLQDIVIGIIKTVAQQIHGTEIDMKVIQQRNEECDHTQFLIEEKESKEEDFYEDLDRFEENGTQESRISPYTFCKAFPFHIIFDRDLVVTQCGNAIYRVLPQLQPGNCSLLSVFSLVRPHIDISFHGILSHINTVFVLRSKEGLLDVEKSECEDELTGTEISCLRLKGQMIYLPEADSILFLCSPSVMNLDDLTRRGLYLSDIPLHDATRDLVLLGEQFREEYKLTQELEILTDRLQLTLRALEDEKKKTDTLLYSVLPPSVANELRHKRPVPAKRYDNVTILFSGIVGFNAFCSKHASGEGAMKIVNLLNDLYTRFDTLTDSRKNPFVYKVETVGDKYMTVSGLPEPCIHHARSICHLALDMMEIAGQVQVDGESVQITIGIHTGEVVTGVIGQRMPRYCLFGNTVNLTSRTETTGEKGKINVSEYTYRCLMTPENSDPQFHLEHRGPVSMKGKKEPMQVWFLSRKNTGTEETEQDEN
T1 sequence (P19687 1-691 partner): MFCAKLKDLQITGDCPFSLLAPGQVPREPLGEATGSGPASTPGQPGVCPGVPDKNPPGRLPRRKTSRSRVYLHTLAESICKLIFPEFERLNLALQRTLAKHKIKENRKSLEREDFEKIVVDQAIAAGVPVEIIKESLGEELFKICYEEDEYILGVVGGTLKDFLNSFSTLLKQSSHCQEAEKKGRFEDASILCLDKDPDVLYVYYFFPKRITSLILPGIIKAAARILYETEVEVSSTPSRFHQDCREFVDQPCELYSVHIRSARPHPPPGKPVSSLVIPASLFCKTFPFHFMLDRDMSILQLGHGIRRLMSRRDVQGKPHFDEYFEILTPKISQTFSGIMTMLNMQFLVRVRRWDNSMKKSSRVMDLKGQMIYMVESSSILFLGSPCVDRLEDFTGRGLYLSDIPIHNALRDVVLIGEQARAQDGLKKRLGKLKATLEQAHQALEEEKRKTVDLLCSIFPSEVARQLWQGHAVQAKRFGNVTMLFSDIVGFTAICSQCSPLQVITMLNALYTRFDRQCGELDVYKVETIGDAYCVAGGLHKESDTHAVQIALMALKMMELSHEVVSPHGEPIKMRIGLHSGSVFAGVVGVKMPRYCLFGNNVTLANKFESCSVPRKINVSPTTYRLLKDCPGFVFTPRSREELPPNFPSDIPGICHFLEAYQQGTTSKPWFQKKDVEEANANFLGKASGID
Experiment: […]cGMP formation from [alpha-32P]GTP by purified sGC
Format: biochemical
Conditions: 0.5 mM GTP, 3 mM MgCl2, 1 mM cGMP, 0.5% Tween 20 (heme-depleted enzyme), TEA/HCl pH 7.4, 37 °C, no extract; NO-independent heme-site activator

## O=C(O)CCCCN(CCc1ccccc1OCc1ccc(CCc2ccccc2)cc1)Cc1ccc(C(=O)O)cc1 [cinaciguat]
  cGMP formation (activation): cGMP formation by Tween 20-treated sGC in the presence of the NO-independent heme-site activator cinaciguat
